Experimental data from US20220041667A1, “TARGETING OF MAKAP-PDE4D3 COMPLEXES IN NEURODEGENERATIVE DISEASE” (The Board of Trustees of the Leland Stanford Junior …, priority 2018, published 2022).

B1: mAKAP-SR-GFP: GFP-tagged fragment encoding the mAKAP spectrin-repeat domains (amino acid residues 586-1286) (protein)
chain: GSDSIKSPVPLLSKNKSQKSSPPAPCHATQNGQVVEAWYGSDEYLALPSHLKQTEVLALKLESLTKLLPQKPRGETIQDIDDWELSEMNSDSEIYPTYHIKKKHTRLGTVSPSSSSDIASSLGESIESGPLSDILSDEDLCLPLSSVKKFTDEKSERPSSSEKNESHSATRSALIQKLMHDIQHQENYEAIWERIEGFVNKLDEFIQWLNEAMETTENWTPPKAETDSLRLYLETHLSFKLNVDSHCALKEAVEEEGHQLLELVVSHKAGLKDTLRMIASQWKELQRQIKRQHSWILRALDTIKAEILATDVSVEDEEGTGSPKAEVQLCHLETQRDAVEQMSLKLYSEQYTSGSKRKEEFANMSKAHAEGSNGLLDFDSEYQELWDWLIDMESLVMDSHDLMMSEEQQQHLYKRYSVEMSIRHLKKSELLSKVEALKKGGLSLPDDILEKVDSINEKWELLGKTLREKIQDTIAGHSGSGPRDLLSPESGSLVRQLEVRIKELKRWLRDTELFIFNSCLRQEKEGTSAEKQLQYFKSLCREIKQRRRGVASILRLCQHLLDDRDTCNLNADHQPMQLIIVNLERRWEAIVMQAVQWQTRLQKKMGKESETLNVIDPGLMDLNGMSEDALEWDETDISNKLISVHEESNDLDQDPEPMLPAVKLEETHHKDSGYEEEAGDCGGSPYTSNITAPSSPHIYQV
modifications: left off: large carriers

Tests used:
hippocampal neurons = experiment: Neurite extension assay (length of longest neurite) in primary hippocampal neurons; format: cell-based, rat; conditions: for effect on neurite extension (pharmacological induction): hippocampal neurons, 40 mM KCl, 10 μM FSK, 100 μM IBMX, 20 μM milrinone or 10 μM rolipram for 2 days
Procedure: Primary rat hippocampal neurons: Hippocampal cultures were prepared from Sprague Dawley rat embryonic day 18 embryos. Briefly, the rat hippocampal CA1-CA3 region was dissected in PBS medium with 10 mM D-glucose and digested with 0.05% trypsin-EDTA in PBS with 11 mM D-glucose for 30 min at 37° C. The dissociated tissues were centrifuged at 250 g for 2 min and then triturated with fire polished glass pipet in Hank's balanced salt solution (HBSS) with calcium and magnesium in plating medium (10% v/v horse serum in DMEM). Dissociated neurons were plated on nitric acid-treated 25-mm cover glass coated with poly-L-lysine in plating medium. Four hours after plating, the medium was replaced with maintenance medium supplemented with 1% N2, 2% B27 (Invitrogen, Carlsbad, Calif., USA), 5 mM D-glucose, 1 mM sodium pyruvate. Four days later, 4 μM arabinosyl cytosine was added to inhibit glial proliferation and the neurons were either transfected with JPEI or infected with adenovirus.
Live cell imaging was performed 36-72 h after transfection/infection as described below. For neurite extension assays, the cells were cultured for two days in DMEM with 1 μg/ml chicken egg albumin and 1 mM sodium pyruvate. 40 mM KCl, 10 μM FSK, 100 μM IBMX, 20 μM Milrinone, 10 μM Rolipram were included as indicated. Two days later, the neurons were fixed and stained with antibodies. Nuclei were counter stained with DAPI and SlowFade Gold antifade solution (Molecular Probes) was added before coverslip mounting. Images were acquired with IPLab or Slidebook 6 by wide-field microscopy (Leica DMI 6000B or Zeiss Axio Observer 7) and processed with Adobe PhotoShop CSS 12.1. The length of the longest neurite for ˜15 neurons average per condition was measured for each experiment with ImageJ with Simple Neurite Tracer plugin. Other neuronal images were acquired using a Zeiss 880 confocal microscope.

[1] = biological target: PKA (protein kinase A, in Cos-7 cells); experiment: cell-based or functional assay

| Molecule | effect on neurite extension (pharmacological induction) (hippocampal neurons) | other results |
| --- | --- | --- |
| CC(C)Cn1c(=O)n(C)c(=O)c2[nH]cnc21 [IBMX, 3-isobutyl-1-methylxanthine] | induced neurite extension | – |
| mAKAPα WT (N-terminally myc-tagged rat mAKAPα) (from UniProt Q9WVC7 1-2314) | – | amplitude of PN-AKAR4 FRET transient after FSK pulse in Cos-7 cells [1]: 50% |
| [Cl-].[K+] [KCl] | induced neurite extension | increase in axon extension due to KCl depolarization alone (hippocampal neurons; GFP-expressing hippocampal neurons): 29%; increase in axon extension due to KCl depolarization alone (hippocampal neurons; mCherry-nesprin-expressing hippocampal neurons): 37% |
| COc1ccc(C2CNC(=O)C2)cc1OC1CCCC1 (centres unmarked) [rolipram] | induced neurite extension | – |
| Cc1[nH]c(=O)c(C#N)cc1-c1ccncc1 [milrinone] | no effect on neurite growth | – |
| B1 | – | effect on axon outgrowth (longest neurite length) (hippocampal neurons; hippocampal neurons in defined media and with chronic KCl depolarization, vs GFP control): inhibited axon outgrowth |
